Test results from article PMC12481576, “Barbituric Acid Derivatives as Covalent Inhibitors of Leishmania braziliensis Dihydroorotate Dehydrogenase” (Journal of Medicinal Chemistry, 2025).
In brackets after ≈: the same amount, converted by molar mass. Like-named read-outs stand apart in the source and are kept apart here.

How the values were obtained:
[1] = target: T1, LbDHODH (Leishmania braziliensis, UniProt E9AI53); test: biochemical; settings: for IC50: LbDHODH; for inhibition at 100 µM: read-out: enzyme inhibition
T1 sequence (E9AI53 entry or part of it): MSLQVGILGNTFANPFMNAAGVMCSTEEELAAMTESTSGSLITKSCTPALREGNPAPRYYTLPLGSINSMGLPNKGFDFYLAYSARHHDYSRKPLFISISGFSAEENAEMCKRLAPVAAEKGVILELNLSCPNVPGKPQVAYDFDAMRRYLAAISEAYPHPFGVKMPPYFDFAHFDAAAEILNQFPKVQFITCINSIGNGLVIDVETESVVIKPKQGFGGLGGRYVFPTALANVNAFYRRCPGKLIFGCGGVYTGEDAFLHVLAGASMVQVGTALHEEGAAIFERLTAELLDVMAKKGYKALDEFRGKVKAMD
Method: To assess the ability of compounds 2a–2i to inhibit LbDHODH via covalent bond formation with Cys^131, we initially screened them at a concentration of 100 μM under two conditions: with and without a 4-h preincubation with the enzyme.
The experiments were performed in a 96-well microplate reader (SpectraMax Plus 384, Molecular Devices, USA), containing the […] of the buffer 60 mM DCIP, 50 mM Tris pH 8.15, 150 mM KCl, 0.1% Triton X-100, 50 μM DHO and 10 μM of LbDHODH at 165 nM. The reaction was monitored every 3 s at 610 nm over a period of 60 s, in triplicate, for the control and each concentration of the inhibitor. All assays were performed without incubation (0h) and with 4-h preincubation of the inhibitor with LbDHODH, using 5% DMSO (v/v) as control. […]. […] The resulting kobs values were plotted as a function of inhibitor concentration, and the data in the initial linear region was fit to determine the slope, which is kinact/KI. All regressions were performed with GraphPad Prism 9.

[2] = target: T2, HsDHODH (Homo sapiens, UniProt Q02127); test: Selectivity assay: HsDHODH single-dose inhibition (DCIP reduction); type: biochemical
T2 construct: made in house
T2 sequence (Q02127 whole entry): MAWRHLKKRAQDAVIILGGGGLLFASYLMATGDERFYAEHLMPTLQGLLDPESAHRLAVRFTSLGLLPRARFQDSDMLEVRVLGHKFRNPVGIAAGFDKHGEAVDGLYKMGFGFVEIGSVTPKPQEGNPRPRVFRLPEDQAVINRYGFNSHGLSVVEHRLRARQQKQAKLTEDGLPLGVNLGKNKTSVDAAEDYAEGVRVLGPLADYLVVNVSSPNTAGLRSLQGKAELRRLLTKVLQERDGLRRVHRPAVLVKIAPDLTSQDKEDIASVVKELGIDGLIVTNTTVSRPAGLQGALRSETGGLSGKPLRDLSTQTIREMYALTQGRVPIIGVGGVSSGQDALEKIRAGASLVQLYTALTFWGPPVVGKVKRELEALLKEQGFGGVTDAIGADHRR
Method: […]. This finding highlights the potential of barbituric acid derivatives as selective inhibitors of LbDHODH.
Human DHODH expression and purification were conducted following a protocol previously established in our laboratory. The purification was carried out by affinity chromatography on a Ni-NTA Agarose column (Qiagen[…] Cat. No. 30210). […] The reaction was performed in triplicate, initiated by adding 195 μL of reaction buffer to 5 μL of HsDHODH protein solution for a final concentration of 20 nM enzyme. As a blank, 195 μL of reaction buffer was added to 5 μL of Buffer A. The reaction was monitored at 610 nm every 3 s over 60 s. As a control, 5 μL of enzyme was added to 195 μL of reaction medium without compound. Enzymatic velocity was calculated, and the percentage of relative enzymatic activity was determined relative to the control.

[3] = Cell viability / cytotoxicity assay (PrestoBlue, 72 h); type: cell-based; settings: human; THP-1 cell line, 72 h, max 200 μM; read-out: CC50
Method: THP-1 cells (American Type Cell Collection, #TIB-202) were acquired in 2019 and stored frozen in liquid nitrogen. The cells were then maintained in RPMI 1640 (Thermo Fisher Scientific, #S31800–022) at 37 °C in a 5% CO2 atmosphere and routinely tested for Mycoplasma contamination by PCR using the primers 5′-[…] and 5′-[…]. To test the toxicity of compounds, 5000 cells were added to 96-well plates with a final volume of 80 μL centrifuged at 400g for 2 min and incubated with 150 ng/mL of phorbol myristate acetate (Merck, #P8139) for 48 h. The medium was replaced, and after 24 h, the compounds were added and tested at decreasing concentrations starting from 200 μM (10 μL/well). After 72 h of incubation, 10 μL of PrestoBlue Cell Viability Reagent (Thermo Fisher Scientific, #A13262) was added per well. After adding the reagent, the cells were incubated for 2 h at 37 °C in a 5% CO2 atmosphere, and fluorescence readings were performed using the SpectraMax M3 reader (excitation at 560 nm and emission at 590 nm).

[4] = target: T1, LbDHODH; test: Kinact/KI determination from LbDHODH progress curves (kobs vs inhibitor concentration); type: biochemical
From the text: The Kinact/Ki ratio is a key parameter for evaluating the potency of covalent inhibitors, as it quantitatively measures both their reactivity and affinity for the target enzyme. This parameter integrates two crucial aspects: KI, which reflects the inhibitor’s binding affinity, and Kinact, which describes the rate at which the covalent bond is formed. […] Therefore, this ratio is essential for ranking covalent inhibitors, optimizing their potency, and guiding structure-based drug design.
The experiments were performed in a 96-well microplate reader (SpectraMax Plus 384, Molecular Devices, USA), containing the […] of the buffer 60 mM DCIP, 50 mM Tris pH 8.15, 150 mM KCl, 0.1% Triton X-100, 50 μM DHO and 10 μM of LbDHODH at 165 nM. The reaction was monitored every 3 s at 610 nm over a period of 60 s, in triplicate, for the control and each concentration of the inhibitor. All assays were performed without incubation (0h) and with 4-h preincubation of the inhibitor with LbDHODH, using 5% DMSO (v/v) as control. […] To determine the IC50 values, the activity percentage data were fitted as a function of the concentration logarithm by nonlinear regression analysis (variable hillslope) using Prism 9.0 software (GraphPad Software, USA). […] The resulting kobs values were plotted as a function of inhibitor concentration, and the data in the initial linear region was fit to determine the slope, which is kinact/KI. All regressions were performed with GraphPad Prism 9.

[5] = system: Leishmania braziliensis promastigotes; test: Leishmanicidal activity, promastigote growth (SYBR Green, 72 h); type: cell-based, Leishmania (V.) braziliensis (MHOM/BR/1975/M2904); settings: Leishmania braziliensis, L. braziliensis promastigotes, max 200 μM
Method: The cultures were adjusted to 4 × 10^6 parasites per mL, and 50 μL of each culture was added on a test plate with 384 wells (Corning, #CLS3658), along with the controls and compounds to be tested. Previously diluted compounds in DMSO were added to plates in decreasing concentrations, with a maximum concentration of 200 μM. Parasites were exposed to a final concentration of DMSO in various dilutes (final = 0.5%), and the culture medium was used as the control for the experiment. […] After adding the lysis buffer, the plates were incubated in the dark for 2 h with gentle shaking. The readings were done using a SpectraMax M3 reader (excitation at 485 nm and emission at 535 nm).

[6] = Kinetic solubility assay in PBS pH 7.4; type: physicochemical; settings: PBS pH 7.4, 200 μM test conc, 1% DMSO, 2 h at 25 °C
Method: The plate was incubated for 2 h at 25 °C. The precipitates on the incubation plate were removed by filtration and the filtrates were quantified by LC-MS/MS. Calibration curves were prepared for each compound by using 5–6 points. Samples were analyzed by UV–vis.

[7] = 0 h, pH 8.15, read-out: LbDHODH Activity±SD (%)
[8] = 4 h, pH 8.15, read-out: LbDHODH Activity±SD (%)
[9] = IC50 0 h, without preincubation
[10] = read-out: Single dose (0h) % activity
[11] = read-out: Single dose (4h) % activity
[12] = phosphate buffered saline, aqueous buffer, kinetic from dmso stock

## O=C1NC(=O)C(=Cc2ccccc2)C(=O)N1 [2a, 5-Benzylidenepyrimidine-2,4,6(1H,3H,5H)-trione]
[1]; [7]
  activity at 0.195312 µM: 108 ± 9%
  activity at 0.390625 µM: 106 ± 13%
  activity at 0.78125 µM: 110 ± 8%
  activity at 1.5625 µM: 103 ± 8%
  activity at 3.125 µM: 106 ± 8%
  activity at 6.25 µM: 88 ± 10%
  activity at 12.5 µM: 73 ± 9%
  activity at 25 µM: 60 ± 9%
  activity at 50 µM: 54 ± 9%
  activity at 100 µM: 36 ± 5%
  activity at 200 µM: 27 ± 9%
  activity at 400 µM: 20 ± 2%
[1]; [8]
  activity at 0.195312 µM: 110 ± 16%
  activity at 0.390625 µM: 92 ± 13%
  activity at 0.78125 µM: 91 ± 6%
  activity at 1.5625 µM: 84 ± 15%
  activity at 3.125 µM: 74 ± 10%
  activity at 6.25 µM: 54 ± 4%
  activity at 12.5 µM: 55 ± 5%
  activity at 25 µM: 44 ± 3%
  activity at 50 µM: 29 ± 10%
  activity at 100 µM: 21 ± 1%
  activity at 200 µM: 5 ± 1%
  activity at 400 µM: 6 ± 2%
[1]; [9]
  IC50: 56 ± 5 µM
[1]; IC50 4 h, 4-h preincubation
  IC50: 13 ± 2 µM
[1]; [10]
  activity at 100 µM: 11 ± 9%
[1]; [11]
  activity at 100 µM: 3.5 ± 0.2%
[1]
  inhibition at 100 µM: 96.5%
[2]; [10]
  activity at 100 µM: 87 ± 10%
[2]; [11]
  activity at 100 µM: 79 ± 8%
[3]
  CC50 at 72 h: > 200 µM
[4]; inhibitor 0.390625 µM
  Kobs: 0.003884 ± 0.002 s⁻¹
[4]; inhibitor 0.78125 µM
  Kobs: 0.003327 ± 0.002 s⁻¹
[4]; inhibitor 1.5625 µM
  Kobs: 0.003467 ± 0.002 s⁻¹
[4]; inhibitor 3.125 µM
  Kobs: 0.003356 ± 0.002 s⁻¹
[4]; inhibitor 6.25 µM
  Kobs: 0.003415 ± 0.002 s⁻¹
[4]; inhibitor 12.5 µM
  Kobs: 0.003372 ± 0.002 s⁻¹
[4]; inhibitor 25 µM
  Kobs: 0.003515 ± 0.002 s⁻¹
[4]; inhibitor 50 µM
  Kobs: 0.003742 ± 0.001 s⁻¹
[4]; inhibitor 100 µM
  Kobs: 0.004728 ± 0.001 s⁻¹
[4]; inhibitor 200 µM
  Kobs: 0.006479 ± 0.003 s⁻¹
[4]; slope of kobs vs inhibitor concentration
  kinact/KI: 17 M⁻¹ s⁻¹
[5]
  EC50: > 200 µM

## O=C1NC(=O)C(=Cc2cccc(O)c2)C(=O)N1 [2g, 5-(3-Hydroxybenzylidene)pyrimidine-2,4,6(1H,3H,5H)-trione]
[1]; [7]
  activity at 0.78125 µM: 90 ± 9%
  activity at 1.5625 µM: 106 ± 12%
  activity at 3.125 µM: 78 ± 13%
  activity at 6.25 µM: 106 ± 15%
  activity at 12.5 µM: 101 ± 10%
  activity at 25 µM: 82 ± 17%
  activity at 50 µM: 63 ± 8%
  activity at 100 µM: 45 ± 5%
  activity at 200 µM: 29 ± 3%
  activity at 400 µM: 21 ± 2%
[1]; [8]
  activity at 0.78125 µM: 88 ± 8%
  activity at 1.5625 µM: 72 ± 9%
  activity at 3.125 µM: 77 ± 13%
  activity at 6.25 µM: 75 ± 10%
  activity at 12.5 µM: 58 ± 5%
  activity at 25 µM: 36 ± 4%
  activity at 50 µM: 23 ± 3%
  activity at 100 µM: 12.1 ± 2%
  activity at 200 µM: 7.1 ± 2%
  activity at 400 µM: 5.4 ± 3%
[1]; [9]
  IC50: 90 ± 10 µM
[1]; IC50 4 h, 4-h preincubation
  IC50: 13 ± 1 µM
[1]; [10]
  activity at 100 µM: 22 ± 4%
[1]; [11]
  activity at 100 µM: 8 ± 2%
[1]
  inhibition at 100 µM: 90 to 93%
[2]; [10]
  activity at 100 µM: 101 ± 11%
[2]; [11]
  activity at 100 µM: 96 ± 9%
[3]
  CC50 at 72 h: 76 ± 12 µM
[4]; inhibitor 0.390625 µM
  Kobs: 0.003649 ± 0.003 s⁻¹
[4]; inhibitor 0.78125 µM
  Kobs: 0.003674 ± 0.003 s⁻¹
[4]; inhibitor 1.5625 µM
  Kobs: 0.00383 ± 0.002 s⁻¹
[4]; inhibitor 3.125 µM
  Kobs: 0.003621 ± 0.002 s⁻¹
[4]; inhibitor 6.25 µM
  Kobs: 0.003878 ± 0.002 s⁻¹
[4]; inhibitor 12.5 µM
  Kobs: 0.004049 ± 0.002 s⁻¹
[4]; inhibitor 25 µM
  Kobs: 0.004549 ± 0.002 s⁻¹
[4]; inhibitor 50 µM
  Kobs: 0.005211 ± 0.002 s⁻¹
[4]; inhibitor 100 µM
  Kobs: 0.007035 ± 0.001 s⁻¹
[4]; inhibitor 200 µM
  Kobs: 0.01421 ± 0.003 s⁻¹
[4]; inhibitor 400 µM
  Kobs: 0.01927 ± 0.006 s⁻¹
[5]
  EC50: > 200 µM

## O=C(O)Cc1ccccc1Nc1c(Cl)cccc1Cl [Diclofenac Sodium, reference compound]
[6]; [12]
  solubility kinetic at 2 h: 200 µM

## CC/C(=C(/CC)c1ccc(O)cc1)c1ccc(O)cc1 [Diethylstilbesterol, reference compound]
[6]
  solubility kinetic at 2 h: 9.98 µM (≈ 2.68 µg/mL)

## O=C(CCCN1CCC(O)(c2ccc(Cl)cc2)CC1)c1ccc(F)cc1 [Haloperidol, reference compound]
[6]; [12]
  solubility kinetic at 2 h: 30.3 µM (≈ 11.4 µg/mL)
